Results: patent US10836764B2, “5-HT2C receptor agonists and compositions and methods of use” (Arena Pharmaceuticals, Inc., priority 2016, dated 2020)
Where two headings read alike, the source gives them in different places.

Tests used:
5-HT2C receptor = 5-HT2C receptor (Homo sapiens (Human), UniProt P28335); assay: IP accumulation assay, 5-HT2C; type: cell-based
Description: (§1) HEK293 cells expressing recombinant 5-HT2 receptors were added to sterile poly-D-lysine-coated 96-well microtiter plates (35,000 cells/well) and labeled with 0.6 μCi/well of [^3H]inositol in myoinositol-free DMEM for 18 h. Unincorporated [^3H]inositol was removed by aspiration and replaced with fresh myoinositol-free DMEM supplemented with LiCl (10 mM final) and pargyline (10 μM final). Serially diluted test compounds were then added and incubation was conducted for 2 h at 37° C. (5-HT2B, and 5-HT2A) and RT (5-HT2C). Incubations were then terminated by lysing cells with the addition of ice-cold 0.1 M formic acid followed by freezing at −80° C. After thawing, total [^3H]inositol phosphates were resolved from [^3H]inositol using AG1-X8 ion exchange resin (Bio-Rad) and [^3H]inositol phosphates were measured by scintillation counting using a Perkin Elmer TopCount® scintillation counter. All EC50 determinations were performed using 10 different concentrations and triplicate determinations were made at each test concentration.

5-HT2B receptor = 5-HT2B receptor (Homo sapiens (Human), UniProt P41595); assay: IP accumulation assay, 5-HT2B; type: cell-based
Chain of 5-HT2B receptor (P41595 whole entry): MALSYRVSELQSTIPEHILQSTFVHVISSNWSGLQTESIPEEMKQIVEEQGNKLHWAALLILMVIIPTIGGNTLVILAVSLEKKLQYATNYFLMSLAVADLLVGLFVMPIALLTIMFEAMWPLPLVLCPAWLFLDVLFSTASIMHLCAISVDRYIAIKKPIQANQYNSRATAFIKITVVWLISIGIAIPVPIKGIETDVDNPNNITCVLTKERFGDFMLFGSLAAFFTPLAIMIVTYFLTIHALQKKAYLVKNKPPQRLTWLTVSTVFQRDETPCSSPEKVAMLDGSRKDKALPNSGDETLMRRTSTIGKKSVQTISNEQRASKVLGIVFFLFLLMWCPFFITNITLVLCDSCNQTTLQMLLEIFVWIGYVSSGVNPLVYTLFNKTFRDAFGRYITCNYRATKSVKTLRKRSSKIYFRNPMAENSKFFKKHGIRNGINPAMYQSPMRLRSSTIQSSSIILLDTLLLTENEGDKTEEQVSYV
Description: as §1

5-HT2A receptor [1] = biological target: T1, 5-HT2A receptor (Homo sapiens (Human), UniProt P28223); assay: IP accumulation assay, 5-HT2A; type: cell-based
T1 sequence (P28223 whole entry): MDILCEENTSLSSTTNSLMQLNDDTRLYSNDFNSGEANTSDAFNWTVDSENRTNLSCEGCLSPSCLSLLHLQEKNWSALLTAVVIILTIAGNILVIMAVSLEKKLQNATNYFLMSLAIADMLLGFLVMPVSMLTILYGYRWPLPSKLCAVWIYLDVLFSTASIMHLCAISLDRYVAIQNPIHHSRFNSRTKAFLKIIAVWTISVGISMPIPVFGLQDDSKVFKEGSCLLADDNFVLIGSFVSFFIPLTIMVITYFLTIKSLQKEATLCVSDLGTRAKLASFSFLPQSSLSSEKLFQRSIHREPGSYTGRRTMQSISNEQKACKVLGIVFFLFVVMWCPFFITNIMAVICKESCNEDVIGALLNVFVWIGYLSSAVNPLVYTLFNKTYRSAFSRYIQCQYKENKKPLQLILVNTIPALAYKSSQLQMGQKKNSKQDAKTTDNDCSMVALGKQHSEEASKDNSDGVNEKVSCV
Description: as §1

5-HT2A receptor [2] = biological target: T1, 5-HT2A receptor; assay: DOI radioligand binding assay, 5-HT2A; conditions: [125I]DOI competition, HEK293 cell membranes; read-out: DOI Binding 5HT2A
Description: For the compounds of Table A, the following procedure was used. HEK293 cells stably expressing recombinant 5-HT2 receptors were harvested, suspended in ice-cold phosphate buffered saline, pH 7.4 (PBS), and then centrifuged at 48,000 g for 20 min at 4° C. The resulting cell pellet was then re-suspended in wash buffer containing 20 mM HEPES, pH 7.4 and 0.1 mM EDTA, homogenized on ice using a Brinkman Polytron, and centrifuged (48,000 g for 20 min at 4° C.). The pellet was then resuspended in 20 mM HEPES, pH 7.4, homogenized on ice, and centrifuged (48,000 g for 20 min at 4° C.). Crude membrane pellets were stored at −80° C. until used for radioligand binding assays.
For the compounds of Table A, the following procedure was used. […] Experiments comprised addition of 95 μL of assay buffer (20 mM HEPES, pH 7.4, 10 mM MgCl2), 50 μL of membranes, 50 μL of radioligand stock, and 5 μL of test compound diluted in assay buffer to 96-well microtiter plates, which were then incubated for 1 h at room temperature. Assay incubations were terminated by rapid filtration through PerkinElmer F/C filtration plates under reduced pressure using a 96-well Packard filtration apparatus, followed by washing three times with ice cold assay buffer. Plates were then dried at 45° C. for a minimum of 2 h. Finally, 25 μL of BetaScint™ scintillation cocktail was added to each well and the plates were counted in a Packard TopCount® scintillation counter. In each competition study, test compounds were dosed at ten concentrations with triplicate determinations at each test concentration.

[3] = IP accumulation, HEK293 cells, 2 h at RT, read-out: EC50 5HT2C
[4] = IP accumulation, HEK293 cells, 2 h at 37° C., read-out: EC50 5HT2B
[5] = IP accumulation, HEK293 cells, 2 h at 37° C., read-out: EC50 5HT2A

Chain of 5-HT2C receptor (P28335 33-458): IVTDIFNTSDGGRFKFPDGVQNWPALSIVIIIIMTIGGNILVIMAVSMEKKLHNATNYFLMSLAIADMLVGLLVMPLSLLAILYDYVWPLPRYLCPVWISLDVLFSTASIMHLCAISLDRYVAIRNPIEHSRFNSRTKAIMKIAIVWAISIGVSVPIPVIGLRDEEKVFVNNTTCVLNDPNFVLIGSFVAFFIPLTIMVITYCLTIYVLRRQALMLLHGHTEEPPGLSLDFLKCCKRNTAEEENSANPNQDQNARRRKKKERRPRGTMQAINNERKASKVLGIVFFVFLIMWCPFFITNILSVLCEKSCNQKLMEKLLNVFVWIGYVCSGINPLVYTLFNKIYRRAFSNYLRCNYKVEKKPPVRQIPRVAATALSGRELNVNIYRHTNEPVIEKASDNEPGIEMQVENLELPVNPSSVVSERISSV

Question: What does the source list for O=C(NCC(F)F)c1ccnc2c1CC[C@@H]1CNCCN21 [Compound 140, (R)-N-(2,2-difluoroethyl)-6,6a,7,8,9,10-hexahydro-5H-pyrazino[1,2-a][1,8]naphthyridine-4-carboxamide]?
Answer: EC50 (5-HT2C receptor; [3]): 4620 nM; EC50 (5-HT2B receptor; [4]): ≥ 100000 nM; EC50 (5-HT2A receptor [1]): ≥ 100000 nM

Question: With O=C(Nc1ccnc2c1CC[C@@H]1CNCCN21)C1CC1 [Compound 141, (R)-N-(6,6a,7,8,9,10-hexahydro-5H-pyrazino[1,2-a][1,8]naphthyridin-4-yl)cyclopropanecarboxamide] as the compound, how does the EC50 (5-HT2C receptor; [3]) read?
Answer: Its EC50 is 100000 nM.

Question: And the EC50 (5-HT2B receptor; [4])?
Answer: The EC50 was at least 100000 nM.

Question: And the EC50 (5-HT2A receptor [1])?
Answer: Its EC50 is at least 100000 nM.

Question: Which results are given for c1cnc2c(c1)CC[C@@H]1CNCCN21 [Compound 148, (R)-6,6a,7,8,9,10-hexahydro-5H-pyrazino[1,2-a][1,8]naphthyridine]?
Answer: EC50 (5-HT2C receptor; [3]): 93.4 nM; EC50 (5-HT2B receptor; [4]): 61.2 nM; EC50 (5-HT2A receptor [1]; [5]): 100000 nM

Question: c1cc(C2CCC2)c2c(n1)N1CCNC[C@H]1CC2 [Compound 149, (R)-4-cyclobutyl-6,6a,7,8,9,10-hexahydro-5H-pyrazino[1,2-a][1,8]naphthyridine] was tested. Which Ki (5-HT2A receptor [2]) did it give?
Answer: Its Ki is 10.3 nM.

Question: And the EC50 (5-HT2A receptor [1]; [5])?
Answer: Its EC50 is 236 nM.

Question: How did the EC50 (5-HT2C receptor) turn out when Clc1ccnc2c1CC[C@@H]1CNCCN21 [Compound 150, (R)-4-chloro-6,6a,7,8,9,10-hexahydro-5H-pyrazino[1,2-a][1,8]naphthyridine] was run?
Answer: Its EC50 is 5.19 nM.

Question: And the EC50 (5-HT2B receptor)?
Answer: Its EC50 is 45.4 nM.

Question: And the EC50 (5-HT2A receptor [1])?
Answer: The EC50 was 1330 nM.

Question: Which EC50 (5-HT2C receptor) does the source give for c1cc(C2CC2)c2c(n1)N1CCNC[C@H]1CC2 [Compound 151, (R)-4-cyclopropyl-6,6a,7,8,9,10-hexahydro-5H-pyrazino[1,2-a][1,8]naphthyridine] here?
Answer: The EC50 was 6.22 nM.

Question: What about the EC50 (5-HT2B receptor) of the same compound?
Answer: The EC50 was 15 nM.

Question: And the EC50 (5-HT2A receptor [1])?
Answer: Its EC50 is 435 nM.

Question: How did the EC50 (5-HT2C receptor; [3]) turn out when c1cc2c(cn1)N1CCNC[C@H]1CC2 [Compound 153, (R)-6,6a,7,8,9,10-hexahydro-5H-pyrazino[1,2-a][1,7]naphthyridine] was run?
Answer: The EC50 was 329 nM.

Question: What about the EC50 (5-HT2B receptor; [4]) of the same compound?
Answer: The EC50 was 779 nM.

Question: What about the EC50 (5-HT2A receptor [1]; [5]) of the same compound?
Answer: Its EC50 is 100000 nM.

Question: With c1cc2c(c(CC3CCC3)n1)CC[C@@H]1CNCCN21 [Compound 154, (R)-7-(cyclobutylmethyl)-2,3,4,4a,5,6-hexahydro-1H-pyrazino[1,2-a][1,6]naphthyridine] as the compound, how does the EC50 (5-HT2C receptor) read?
Answer: Its EC50 is 5580 nM.

Question: And the EC50 (5-HT2B receptor)?
Answer: Its EC50 is at least 100000 nM.

Question: And the EC50 (5-HT2A receptor [1])?
Answer: The EC50 was at least 100000 nM.

Question: c1cc2c(cn1)CC[C@@H]1CNCCN21 [Compound 155, (R)-2,3,4,4a,5,6-hexahydro-1H-pyrazino[1,2-a][1,6]naphthyridine] was tested. Which EC50 (5-HT2C receptor) did it give?
Answer: The EC50 was 100000 nM.

Question: And the EC50 (5-HT2B receptor)?
Answer: The EC50 was at least 100000 nM.

Question: And the EC50 (5-HT2A receptor [1])?
Answer: Its EC50 is at least 100000 nM.

Question: How did the Ki (5-HT2A receptor [2]) turn out when CC1CC2CNCCN2c2ncccc21 (centres unmarked) [Compound 158, 5-methyl-6,6a,7,8,9,10-hexahydro-5H-pyrazino[1,2-a][1,8]naphthyridine] was run?
Answer: The Ki was 1080 nM.

Question: With CCc1c(COC(C)C)cnc2c1CC[C@@H]1CNCCN21 [Compound 163, (R)-4-ethyl-3-(isopropoxymethyl)-6,6a,7,8,9,10-hexahydro-5H-pyrazino[1,2-a][1,8]naphthyridine] as the compound, how does the Ki (5-HT2A receptor [2]) read?
Answer: Its Ki is 468 nM.

Question: Which Ki (5-HT2A receptor [2]) does the source give for CCc1c(C2CCC2)cnc2c1CC[C@@H]1CNCCN21 [Compound 166, (R)-3-cyclobutyl-4-ethyl-6,6a,7,8,9,10-hexahydro-5H-pyrazino[1,2-a][1,8]naphthyridine] here?
Answer: The Ki was 958 nM.

Question: How did the Ki (5-HT2A receptor [2]) turn out when CSc1nc(Cl)c2c(n1)N1CCNC[C@H]1CC2 [Compound 169, (R)-4-chloro-2-(methylthio)-6,6a,7,8,9,10-hexahydro-5H-pyrazino[1′,2′:1,6]pyrido[2,3-d]pyrimidine] was run?
Answer: The Ki was 129 nM.

Question: How did the Ki (5-HT2A receptor [2]) turn out when CCc1c(CC2CCCC2)cnc2c1CC[C@@H]1CNCCN21 [Compound 171, (R)-3-(cyclopentylmethyl)-4-ethyl-6,6a,7,8,9,10-hexahydro-5H-pyrazino[1,2-a][1,8]naphthyridine] was run?
Answer: The Ki was 351 nM.

Question: With CCCc1cncc2c1CC[C@@H]1CNCCN21 [Compound 173, (R)-4-propyl-6,6a,7,8,9,10-hexahydro-5H-pyrazino[1,2-a][1,7]naphthyridine] as the compound, how does the Ki (5-HT2A receptor [2]) read?
Answer: Its Ki is 44 nM.
